“Also recorded” adds a separate entry of the source.
How the values were obtained:
cholinesterase = cholinesterase blocking effect; assay type: biochemical
white rats = test: acute oral toxicity (LD50) on white rats; conditions: rat, in vivo
Description: (§1) Therefore, the new compound of the formula (I) can be utilized to advantage as insecticidal agent for controlling granarial insect pests and insects attacking ornamental plants, indoor plants and vegetables.

[1] = system: dried bean beetle (Acanthoscelides obtectus); test: protection against dried bean beetle, procedure of Example 13(a) (Table 7); assay type: in vivo; conditions: compared with dichlorphon
Protocol: (§2) The emulsifiable concentrate described in Example 8 was diluted with water to a final active agent content of 3% by weight, and an amount corresponding to 2.5 mg of racemic active agent/cm^2 of plane area of the resulting spray liquid was filled into a cylindrical flask. 20 flies, anaesthetized with carbon dioxide, were placed in the flask, the flask was covered with a Petri dish, and the effect of the active agent was observed. In the control test the same dosage of dichlorphon (O,O-dimethyl-2,2-dichlorovinyl phosphate) was applied as active agent.
Protection against dried bean beetle (Acanthoscelides obtectus)

Green pepper = test: greenhouse pre-emergent treatment, green weight, green pepper (Table 2); assay type: in vivo; conditions: 4-week-old plants
Protocol: (§3) (a2) Seeds of bean, carrot, flax, green pepper, tomato, spinach, barley and sorghum were sown into cultivation pots (20×20 cm) filled with sand. The cultivation pots were placed in a greenhouse, and treated prior to plant emergence with 0.1 or 0.2 kg of racemic active agent/hectare. The green weights of the 4-week-old plants were measured, and the data were compared to those observed with the untreated controls.

[2] = system: housefly (Musca domestica) larvae; test: insecticidal activity, protection against housefly larvae (Table 6); assay type: in vivo; conditions: for Development: in relation to the control
Protocol: 1 kg of wheat barn was admixed with 1 liter of milk, 10 g of fodder yeast and 6 g of Nipagin (ethyl p-hydroxybenzoate) to obtain a culture medium for the cultivation of housefly larvae. 200 g each of the above culture medium were put into small cylindrical flasks, and racemic active agent was added so that the active agent content of the culture medium was 250, 500 and 1000 ppm, respectively. The racemic active agent was introduced in the form of an emulsifiable concentrate containing 50% by weight of the compound concerned, and the culture medium was homogenized with the concentrate. No active agent was introduced into the control flask. 50 one-day-old housefly larvae each were placed in the cylindrical flasks, the flasks were covered with a cloth ensuring good ventilation, and the percentage of images developing from the pupae was determined in relation to the control.

Spinach = test: greenhouse pre-emergent treatment, green weight, spinach (Table 2); assay type: in vivo; conditions: 0.1 kg/ha, 4-week-old plants
Protocol: as §3

corn [3] = test: open-air test on small parcels with dressed corn seeds (Table 3); assay type: in vivo
Protocol: (§4) 6 parts by weight of a 10% acetone solution of (±)-2-(propargyloxyimino)-1,7,7-trimethyl-bicyclo[2,2,1]heptane are added under stirring to a solution containing 30 parts by weight of acetone, 2.5 parts by weight of hydroxypropyl cellulose, 5 parts by weight of polyethylene glycol (molecular weight: 6000), 20 parts by weight of water and an arbitrary amount of a dyestuff having no germination-inhibiting effect.
(§5) (a1) Three cultivation pots were filled with sand, and 30 corn seeds each were sown. 10 of the seeds were not dressed (untreated controls), 10 of the seeds were dressed with a dressing agent described in Example 10 but containing no active agent (placebo), whereas the remaining 10 seeds were dressed with a dressing agent prepared according to Example 10 containing racemic active agent. The cultivation pots were placed in a greenhouse, and the temperature, light and atmospheric humidity of the greenhouse were maintained at optimum. The percentage of germinating seeds was determined, and on the 14th and 28th days after sowing the height and green weight of the emerged plants were measured. The results of the test are summarized in Table 1, in which the percentage of germination is related to the number of seeds sown, whereas the heights and green weights of the plants are given in percentages related to the untreated controls.
The procedure described in point (a) was repeated with the difference that the seeds were sown in a 10×10 m parcel, the plants were kept under observation for the whole growth season, and the crop yield was also determined. The parcel was hoed in order to remove weeds.

Tomato = test: greenhouse pre-emergent treatment, green weight, tomato (Table 2); assay type: in vivo; conditions: 4-week-old plants
Protocol: as §3

corn [4] = test: open-air test on small parcels, pre- or post-emergent spraying of corn (Table 4); assay type: in vivo; conditions: for Ear yield / Green weight / Height: untreated = 100
Protocol: 10 parts by weight of (±)-2-(propargyloxyimino)-1,7,7-trimethyl-bicyclo[2,2,1]heptane are dissolved in 9 parts by weight of xylene, and 1 part by weight of a mixture of an anionic and a non-ionic surfactant (e.g. a 2:3 mixture of Atlox 3386 and Atlox 4851) is added to the solution. The mixture is homogenized. An emulsifiable concentrate containing 50% by weight of active agent (50 EC) is obtained, which can be diluted with water to form a spray liquid.
Corn seeds were sown in small (10×10 m) parcels, and the parcels were treated prior to or after plant emergence with an aqueous spray liquid prepared from the emulsifiable concentrate described in Example 8. The concentrate was diluted with rain water to a final active agent content of 0.02 to 0.1%, depending on the dosage applied, and 500 liters/hectare of the spray liquid were applied. The dosages examined in the pre-emergent treatments varied between […] of racemic active agent/hectare, whereas in the post-emergent treatment a dosage of 1 kg of racemic active agent/hectare was applied. The parcels were hoed in order to remove weeds.

[5] = system: houseflies (Musca domestica); test: insecticidal activity, protection against houseflies (Table 5); conditions: in vivo
Protocol: as §2

Sorghum = test: greenhouse pre-emergent treatment, green weight, sorghum (Table 2); assay type: in vivo; conditions: 4-week-old plants
Protocol: as §3

Barley = test: greenhouse pre-emergent treatment, green weight, barley (Table 2); assay type: in vivo; conditions: 4-week-old plants
Protocol: as §3

[6] = acute oral toxicity (LD50) on white rats; conditions: rat, in vivo; white rats, oral administration
Description: as §1

[7] = system: dried bean beetle (Acanthoscelides obtectus); test: protection against dried bean beetle on treated bean seeds (Table 8); assay type: in vivo
Protocol: (b) 100 g of bean seeds each were treated with a spray liquid containing 1.0% by weight of racemic active agent (prepared by diluting an emulsifiable concentrate containing 50% by weight of active agent) in an amount corresponding to 250, 500 and 1000 ppm of active agent, respectively. The control seeds were not treated. The seeds were put into small cylindrical flasks. 20 insects each were placed in the flasks, and the flasks were covered with a cloth. After 14 days the survivors were counted.

Flax = test: greenhouse pre-emergent treatment, green weight, flax (Table 2); assay type: in vivo; conditions: 4-week-old plants
Protocol: as §3

Bean = test: greenhouse pre-emergent treatment, green weight, bean (Table 2); assay type: in vivo; conditions: 4-week-old plants
Protocol: as §3

corn [8] = test: greenhouse test, plant growth promoting effect on corn from dressed seeds (Table 1); assay type: in vivo
Protocol: as §4, §5

Carrot = test: greenhouse pre-emergent treatment, green weight, carrot (Table 2); assay type: in vivo; conditions: 4-week-old plants
Protocol: as §3

[9] = dressed seeds, open air, untreated control = 100
[10] = post-emergent, 1.0 kg of active agent/hectare
[11] = pre-emergent, 0.1 kg of active agent/hectare
[12] = pre-emergent, 1.0 kg of active agent/hectare
[13] = pre-emergent, 3.0 kg of active agent/hectare
[14] = pre-emergent, 5.0 kg of active agent/hectare
[15] = 14th day after sowing, related to untreated controls
[16] = 28th day after sowing, related to untreated controls

## C#CCON=C1CC2CCC1(C)C2(C)C (racemic) [new compound of the formula (I), 2-(proparglyoxyimino)-1,7,7-trimethyl-bicyclo[2,2,1]heptane]
cholinesterase
  cholinesterase blocking effect: absence of cholinesterase blocking effect
White rats
  toxicity (in words): low toxicity; also recorded: superior to the known active agent with respect to its lower toxicity
[1]
  speed of effect on more resistant test insects (in words): slower on more resistant test insects

## C#CCON=C1CC2CCC1(C)C2(C)C (racemic) [racemic active agent, (±)-2-(propargyloxyimino)-1,7,7-trimethyl-bicyclo[2,2,1]heptane]
Green pepper; 0.1 kg/ha
  Green weight in relation to the controls: 95%
Green pepper; 0.2 kg/ha
  Green weight in relation to the controls: 140%
[2]; 250 ppm
  Activity: 70.4%
  Development: 29.6%
[2]; 500 ppm
  Activity: 100.0%
  Development: 0%
[2]; 1000 ppm
  Activity: 100.0%
  Development: 0%
Spinach
  Green weight in relation to the controls: 135%
Corn [3]; Table 3
  corn higher by (in comparison with the two controls): 27%
  ear yield greater by (in comparison with the two controls): 20%
  green weight higher by (in comparison with the two controls): 25%
Corn [3]; [9]
  Ear yield: 120%
  Green weight: 125%
  Height: 127%
Tomato; 0.1 kg/ha
  Green weight in relation to the controls: 120%
Tomato; 0.2 kg/ha
  Green weight in relation to the controls: 112%
Corn [4]; [10]
  Ear yield: 109%
  Green weight: 120%
  Height: 116%
Corn [4]; post-emergent, 1 kg/hectare
  post-emergent results compared with pre-emergent, same dosage (in words): slightly inferior to the former ones
Corn [4]; [11]
  Ear yield: 102%
  Green weight: 108%
  Height: 105%
Corn [4]; pre-emergent, 0.1 kg/hectare
  effectiveness in pre-emergent treatment (in words): effective even in a dosage of 0.1 kg/hectare
Corn [4]; [12]
  Ear yield: 118%
  Green weight: 127%
  Height: 121%
Corn [4]; [13]
  Ear yield: 116%
  Green weight: 135%
  Height: 127%
Corn [4]; [14]
  Ear yield: 107%
  Green weight: 115%
  Height: 115%
[5]
  effect on houseflies compared with dichlorphon (in words): approximately the same effect as dichlorphon
Sorghum; 0.1 kg/ha
  Green weight in relation to the controls: 130%
Sorghum; 0.2 kg/ha
  Green weight in relation to the controls: 130%
Barley; 0.1 kg/ha
  Green weight in relation to the controls: 120%
Barley; 0.2 kg/ha
  Green weight in relation to the controls: 105%
[6]
  LD50: 1400 mg/kg
[7]; Acanthoscelides obtectus, 336 h, 250 ppm, after 14 days, percentage of the control, read-out: Survivors
  survival at 250 ppm: 5%
[7]; Acanthoscelides obtectus, 336 h, 500 ppm, after 14 days, percentage of the control, read-out: Survivors
  survival at 500 ppm: 0%
[7]; Acanthoscelides obtectus, 336 h, 1000 ppm, after 14 days, percentage of the control, read-out: Survivors
  survival at 1000 ppm: 0%
[7]; even in a concentration of 250 ppm
  killing of granarial insect pests such as dried bean beetle (in words): can be applied successfully to kill granarial insect pests
Flax; 0.1 kg/ha
  Green weight in relation to the controls: 118%
Flax; 0.2 kg/ha
  Green weight in relation to the controls: 105%
Bean; 0.1 kg/ha
  Green weight in relation to the controls: 110%
Bean; 0.2 kg/ha
  Green weight in relation to the controls: 135%
Corn [8]; [15]
  14th day Green weight: 152%
  14th day Height: 143%
Corn [8]; [16]
  28th day Green weight: 154%
  28th day Height: 148%
Corn [8]; dressed corn seeds, greenhouse, related to number of seeds sown
  Germination: 95%
Carrot; 0.1 kg/ha
  Green weight in relation to the controls: 105%
Carrot; 0.2 kg/ha
  Green weight in relation to the controls: 140%
